Laboratory results: patent US20100173873A1, “TREATMENT OF METASTASIZED TUMORS” (Novartis Vaccines and Diagnostics, Inc., priority 2005, published 2010)
Several values for one entry are separate records, joined by “and”; a condition that tells them apart may be missing. Equal entries are not always repeated. Where two headings read alike, the source gives them in different places.

Legend:
[1] = test system: other kinases in the PI3K/Akt and MAPK(K) pathways; assay: Selectivity test against other kinases; type: biochemical; details: negligible activity
[2] = test system: VEGF production in MV4;11 cells; assay: VEGF ELISA on MV4;11 culture supernatants; type: cell-based; details: Homo sapiens; MV4;11, 48 hours; read-out: EC50 inhibition of VEGF production
MV4;11 tumors = details: 30 mg/kg/d
pERK in MV4;11 cells = pERK in MV4;11 cells (flow cytometry, Western blot); details: Homo sapiens, MV4-11, 3 h, read-out: Inhibition of pERK
pSTAT5 in MV4;11 cells = pSTAT5 in MV4;11 cells (flow cytometry, Western blot); details: Homo sapiens, MV4-11, 3 h, read-out: Inhibition of pSTAT5
ERK-½ = assay: In vitro kinase assay, ERK; type: biochemical; details: RTK table
Raf = assay: In vitro kinase assay, Raf; type: biochemical; details: RTK table
PI-3K = assay: In vitro kinase assay, PI-3K; type: biochemical; details: RTK table
RS4;11 tumors = assay: Subcutaneous RS4;11 xenograft model; type: in vivo, SCID-NOD mice; details: RS4;11 s.c., 10-150 mg/kg/d p.o.
Protocol: . Animals received sterile rodent chow and water ad libitum and were housed in sterile filter-top cages with 12 hour light/dark cycles. All experiments were under the guidelines of the Association for Assessment and Accreditation of Laboratory Animal Care International.
Cells (5×10^6 cells/mouse) were reconstituted with 50% Matrigel (Becton Dickinson) and implanted s.c. into the right flank of SCID-NOD mice. Treatments were initiated when tumors were 200-1000 mm^3, as outlined in specific study designs. Mice were randomly assigned into cohorts (typically 10 mice/group for efficacy studies and 3-5 mice/group for pharmacodynamic (PD) studies). Compound 1 was administered as a solution via oral gavage. […] . […] Response rates were defined as complete responses CR (no palpable tumor) or partial responses PR (50-99% shrinkage) compared to tumor volume at treatment initiation.

4T1 murine breast tumor = 4T1 murine breast tumor model (primary tumor, liver and lung metastases); type: in vivo, BALB/c mice; details: for Liver # of Metastases Mean ± SD / Lung # of Metastases Mean ± SD: after 17 days of dosing
pERK in MV4;11 tumors = assay: Target modulation in vivo, pERK in MV4;11 tumors; set-up: species or system SCID-NOD mice; details: 10 mg/kg/d p.o.
Protocol: […]. […] For in vivo target modulation analyses, resected tumors were flash frozen, pulverized and stored at −70° C. prior to lysis with 150 mM NaCl, 1.5 mM MgCl2, 50 mM Hepes, pH 7.5, 10% glycerol, 1.0% Triton X-100, 1 mM EGTA, 50 mM NaF, 1 mM Na3VO4, 2 mM Pefabloc (Roche), and complete protease inhibitor cocktail (Roche). Protein content of the lysates was determined using the BCA assay (Bio-Rad, Hercules, Calif.). Western blot analysis for pERK was performed with a mouse antibody to pERK (1:1000, Cell Signaling, Beverly, Mass.) and incubated at 4° C. overnight. Total ERK level was evaluated by re-probing with antibody against total ERK (Cell Signaling). The membranes were then incubated for 1 hour at RT with 1:5000 horseradish peroxidase-conjugated anti-rabbit IgG (Jackson Immunoresearch, West Grove, Pa.). […] FLT3 or STAT5 phosphorylation was measured by probing with an anti-phosphotyrosine antibody (anti-pFLT3 antibody from Cell Signaling, and anti-pSTAT5 antibody from Upstate). Proteins were detected using enhanced chemiluminescence (ECL; Amersham Biosciences, Buckinghamshire, England) and visualized after exposure to Kodak film. Scanning densitometry was performed to quantify band intensities. […]
[…]. […] Tumors that were harvested after selected time points, were homogenized and analyzed for pFLT3 and pSTAT5 levels by IP/Western blot. […]

pFLT3 in MV4;11 tumors = assay: Target modulation in vivo, pFLT3 in MV4;11 tumors; set-up: species or system SCID-NOD mice; details: 10 mg/kg/d p.o., 48 hours post dose
pSTAT5 in MV4;11 tumors = assay: Target modulation in vivo, pSTAT5 in MV4;11 tumors; details: Mus musculus, MV4-11, po

CN1CCN(c2ccc3nc(-c4c(N)c5c(F)cccc5[nH]c4=O)[nH]c3c2)CC1 [Compound 1, 4-Amino-5-fluoro-3-[6-(4-methylpiperazin-1-yl)-1H-benzimidazol-2-yl]quinolin-2(1H)-one]
IC50 [1]: > 10 µM | EC50 [2]: 0.001 to 0.01 µM | Phospho-ERK immunohistochemical staining (MV4;11 tumors; 5-day dosing period): significantly lowered | Ki67 staining (proliferation) (MV4;11 tumors; after 5 doses): reduced Ki67 staining | Apoptosis (activated caspase-3, cleaved PARP staining) (MV4;11 tumors; day 5): increased activated caspase-3 and cleaved PARP staining | inhibition at 0.1 µM (pERK in MV4;11 cells): > 50% | inhibition at 0.1 µM (pSTAT5 in MV4;11 cells): > 50% | IC50 (ERK-½): > 10 µM | IC50 (Raf): > 10 µM | IC50 (PI-3K): > 10 µM | Tumor regressions (RS4;11 tumors): no regressions were observed | Mean Tumor Volume day 18 (4T1 murine breast tumor; 10 mg/kg p.o. once daily): 1798 mm^3 | Treated/Control day 18 (4T1 murine breast tumor; 10 mg/kg p.o. once daily): 0.80 | Max % Inhibition (study day), primary tumor growth (4T1 murine breast tumor; 10 mg/kg p.o. once daily, d 11): 32% and 32 (d 11) % | Liver # of Metastases Mean ± SD (4T1 murine breast tumor; 10 mg/kg): 22 ± 32 | Lung # of Metastases Mean ± SD (4T1 murine breast tumor; 10 mg/kg): 36 ± 32 | Mean Tumor Volume day 18 (4T1 murine breast tumor; 30 mg/kg p.o. once daily): 1246 mm^3 | Treated/Control day 18 (4T1 murine breast tumor; 30 mg/kg p.o. once daily): 0.55 | Max % Inhibition (study day), primary tumor growth (4T1 murine breast tumor; 30 mg/kg p.o. once daily, d 18): 45% and 45 (d 18) % | Liver # of Metastases Mean ± SD (4T1 murine breast tumor; 30 mg/kg): 3 ± 4 | Lung # of Metastases Mean ± SD (4T1 murine breast tumor; 30 mg/kg): 26 ± 26 | Mean Tumor Volume day 18 (4T1 murine breast tumor; 60 mg/kg p.o. once daily): 1248 mm^3 | Treated/Control day 18 (4T1 murine breast tumor; 60 mg/kg p.o. once daily): 0.56 | Max % Inhibition (study day), primary tumor growth (4T1 murine breast tumor; 60 mg/kg p.o. once daily, d 11): 50% and 50 (d 11) % | Liver # of Metastases Mean ± SD (4T1 murine breast tumor; 60 mg/kg): 1 ± 1 | Lung # of Metastases Mean ± SD (4T1 murine breast tumor; 60 mg/kg): 24 ± 11 | Mean Tumor Volume day 18 (4T1 murine breast tumor; 100 mg/kg p.o. once daily): 624 mm^3 | Treated/Control day 18 (4T1 murine breast tumor; 100 mg/kg p.o. once daily): 0.28 | Max % Inhibition (study day), primary tumor growth (4T1 murine breast tumor; 100 mg/kg p.o. once daily, d 14): 74% and 74 (d 14) % | Liver # of Metastases Mean ± SD (4T1 murine breast tumor; 100 mg/kg): 4 ± 13 | Lung # of Metastases Mean ± SD (4T1 murine breast tumor; 100 mg/kg): 24 ± 30 | Mean Tumor Volume day 18 (4T1 murine breast tumor; 150 mg/kg p.o. once daily): 402 mm^3 | Treated/Control day 18 (4T1 murine breast tumor; 150 mg/kg p.o. once daily): 0.18 | Max % Inhibition (study day), primary tumor growth (4T1 murine breast tumor; 150 mg/kg p.o. once daily, d 18): 82% and 82 (d 18) % | Liver # of Metastases Mean ± SD (4T1 murine breast tumor; 150 mg/kg): 0 ± 0 | Lung # of Metastases Mean ± SD (4T1 murine breast tumor; 150 mg/kg): 2 ± 3 | Reduction of number of liver tumor nodules versus controls (4T1 murine breast tumor; 30, 60 and 100 mg/kg treatments): ≥ 77% | pERK levels in tumors (pERK in MV4;11 tumors): Decreases in pERK levels | Phospho-FLT3 in tumors (pFLT3 in MV4;11 tumors): returned closer to baseline levels | inhibition at 10 mg/kg (pSTAT5 in MV4;11 tumors; 8 h, read-out: Inhibition of STAT5 phosphorylation in tumors): ~90% | inhibition at 10 mg/kg (pSTAT5 in MV4;11 tumors; 24 h, read-out: Inhibition of STAT5 phosphorylation in tumors): ~85% | inhibition at 10 mg/kg (pSTAT5 in MV4;11 tumors; 48 h, read-out: Inhibition of p-STAT5 in tumors): ~60%
